Where a SMILES comes first, the peptide text is derived from it.
Assays:
B cells = assay: Aspartame second activity profile (FIG. 47): anti-proliferative activity; assay type: cell-based, human
Description: (§1) Profiling was performed using the following processes:
(§2) FIG. 47 provides a second activity profile of aspartame. The key activities of aspartame include anti-proliferative to B cells (grey arrow); inflammation-related activities: decreased sTNFα and IL1α; increased MCP-1 and VCAM-1; immunomodulatory activities: increased sIL-17A, sIL-17F, sIL-6, and CD40; and tissue remodeling activities: decreased MMP9; increased MMP3, αSMA, and Col-I.

primary human cells [1] = assay: Aspartame first activity profile (FIG. 46): biomarker readouts; assay type: cell-based
Description: as §1
FIG. 46 provides a first activity profile of aspartame. The key activities of aspartame include inflammation-related activities: decreased MCP-1 and SAA; increased IL-8, IL-1α and VCAM-1; immunomodulatory activities: decreased sIL-2; increased sIgG and sIL-6; modulated CD69; and tissue remodeling activities: decreased MMP-9; increased Collagen-I and tPA; modulated PAI-I.

primary human cells [2] = assay: Aspartame second activity profile (FIG. 47): biomarker readouts; assay type: cell-based
Description: as §1, §2

With `COC(=O)[C@H](Cc1ccccc1)NC(=O)[C@@H](N)CC(=O)O` [aspartame] (H-Asp-Phe-OMe) the “proliferation of B cells” value (B cells) was “anti-proliferative”, the CD69 (primary human cells [1]; immunomodulatory activity) was “modulated” and the sIL-2 (primary human cells [1]; immunomodulatory activity) was “decreased”. The sIL-6 (primary human cells [1]; immunomodulatory activity) was “increased”, the sIgG (primary human cells [1]; immunomodulatory activity) was “increased” and the IL-1α (primary human cells [1]; inflammation-related activity) was “increased”. The IL-8 (primary human cells [1]; inflammation-related activity) was “increased”, the MCP-1 (primary human cells [1]; inflammation-related activity) was “decreased” and the SAA (primary human cells [1]; inflammation-related activity) was “decreased”. For the same compound, the VCAM-1 (primary human cells [1]; inflammation-related activity) was “increased”, the Collagen-I (primary human cells [1]; tissue remodeling activity) was “increased” and the MMP-9 (primary human cells [1]; tissue remodeling activity) was “decreased”. For the same compound, the PAI-I (primary human cells [1]; tissue remodeling activity) was “modulated”, the tPA (primary human cells [1]; tissue remodeling activity) was “increased” and the CD40 (primary human cells [2]; immunomodulatory activity) was “increased”. The sIL-6 (primary human cells [2]; immunomodulatory activity) was “increased”, the sIL-17A (primary human cells [2]; immunomodulatory activity) was “increased” and the sIL-17F (primary human cells [2]; immunomodulatory activity) was “increased”. For the same compound, the IL1α (primary human cells [2]; inflammation-related activity) was “decreased”, the MCP-1 (primary human cells [2]; inflammation-related activity) was “increased” and the VCAM-1 (primary human cells [2]; inflammation-related activity) was “increased”. For the same compound, the sTNFα (primary human cells [2]; inflammation-related activity) was “decreased”, the Col-I (primary human cells [2]; tissue remodeling activity) was “increased” and the MMP3 (primary human cells [2]; tissue remodeling activity) was “increased”. The MMP9 (primary human cells [2]; tissue remodeling activity) was “decreased” and the αSMA (primary human cells [2]; tissue remodeling activity) was “increased”.

Reference: patent US20210163308A1, “COMPOSITIONS AND METHODS FOR THE MODULATION OF CYTOKINES” (GALLEON LABS LLC, priority 2018, published 2021)
